PubChem BioAssay AID248 (DTP/NCI, 2004)
Where “and” joins values, the source holds several entries; their conditions need not be identical. Equal values may be shown once. Toxic doses and inconclusive results are not listed. Cut-off read from the data, not from the text of the source: active = T/C of 150% or more; inactive = T/C below 125%.

Tested on: L1210 leukemia ip in BDF1 mice, survival T/C
Experiment: NCI In Vivo Anticancer Drug Screen. Data for tumor model L1210 Leukemia (intraperitoneal) in B6D2F1 (BDF1) mice
Conditions: endpoint: mean survival time, higher = longer survival
Procedure, shortened: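 Transplantable tumor model; survival measured in treated vs vehicle control mice. Value = treated/control.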

[1] = dose: 50.0 mg/kg/injection, schedule: Q01DX009 (ip), vehicle: saline with Tween-80
[2] = dose: 100.0 mg/kg/injection, schedule: Q01DX009 (ip), vehicle: saline with Tween-80
[3] = dose: 200.0 mg/kg/injection, schedule: Q01DX009 (ip), vehicle: saline with Tween-80
[4] = dose: 25.0 mg/kg/injection, schedule: Q04DX003 (ip), vehicle: saline
[5] = dose: 50.0 mg/kg/injection, schedule: Q04DX003 (ip), vehicle: saline
[6] = dose: 100.0 mg/kg/injection, schedule: Q04DX003 (ip), vehicle: saline with Tween-80
[7] = dose: 200.0 mg/kg/injection, schedule: Q04DX003 (ip), vehicle: saline with Tween-80
[8] = dose: 400.0 mg/kg/injection, schedule: Q04DX003 (ip), vehicle: saline with Tween-80
[9] = dose: 100.0 mg/kg/injection, schedule: Q01DX001 (ip), vehicle: saline
[10] = dose: 100.0 mg/kg/injection, schedule: Q04DX003 (ip), vehicle: saline
[11] = dose: 200.0 mg/kg/injection, schedule: Q01DX001 (ip), vehicle: saline
[12] = dose: 200.0 mg/kg/injection, schedule: Q04DX003 (ip), vehicle: saline
[13] = dose: 400.0 mg/kg/injection, schedule: Q01DX001 (ip), vehicle: saline
[14] = dose: 400.0 mg/kg/injection, schedule: Q04DX003 (ip), vehicle: saline
[15] = dose: 75.0 mg/kg/injection, schedule: Q01DX001 (ip), vehicle: saline
[16] = dose: 150.0 mg/kg/injection, schedule: Q01DX001 (ip), vehicle: saline
[17] = dose: 300.0 mg/kg/injection, schedule: Q01DX001 (ip), vehicle: saline
[18] = dose: 50.0 mg/kg/injection, schedule: Q01DX001 (ip), vehicle: saline
[19] = dose: 25.0 mg/kg/injection, schedule: Q01DX009 (ip), vehicle: saline
[20] = dose: 50.0 mg/kg/injection, schedule: Q01DX009 (ip), vehicle: saline
[21] = dose: 100.0 mg/kg/injection, schedule: Q01DX009 (ip), vehicle: saline

Measured: T/C

O=c1[nH]c(=O)c2[nH]cnc2[nH]1
inactive: [1] 100 % of control | [2] 94 % of control | [3] 90 % of control

CCOC(=O)N1CC2CCC(C1)N2C
inactive: dose: 12.5 mg/kg/injection, schedule: Q04DX003 (ip), vehicle: saline 103 % of control | [4] 106 % of control | [5] 101 % of control

Cc1ccc2c(N=Nc3ccc(N(C)C)cc3)cccc2n1
inactive: dose: 25.0 mg/kg/injection, schedule: Q01DX009 (ip), vehicle: saline with Tween-80 93 % of control | [1] 93 % of control | [2] 98 % of control

CCCCOCc1c(CO)cnc(C)c1O
inactive: dose: 25.0 mg/kg/injection, schedule: Q04DX002 (ip), vehicle: saline 99 % of control | dose: 50.0 mg/kg/injection, schedule: Q04DX002 (ip), vehicle: saline 96 % of control | dose: 100.0 mg/kg/injection, schedule: Q04DX002 (ip), vehicle: saline 93 % of control and 96 % of control

NC(=O)C(c1ccccc1)c1ccccc1
inactive: [6] 93 % of control | [7] 100 % of control | [8] 94 % of control

Cc1ccc(S(=O)(=O)N/N=C2\CC3(Cl)CCC2C3)cc1 (stereo not given)
inactive: [2] 88 % of control | [6] 92 % of control | [3] 91 % of control | [7] 97 % of control | [8] 101 % of control

c1ccc([C](c2ccccc2)(c2ccccc2)[Ge]([c]2ccccc2)([c]2ccccc2)[c]2ccccc2)cc1
inactive: dose: 12.8 mg/kg/injection, schedule: Q04DX002 (ip), vehicle: saline with Tween-80 93 % of control | dose: 32.0 mg/kg/injection, schedule: Q04DX002 (ip), vehicle: saline with Tween-80 96 % of control | dose: 80.0 mg/kg/injection, schedule: Q04DX002 (ip), vehicle: saline with Tween-80 89 % of control | dose: 200.0 mg/kg/injection, schedule: Q04DX002 (ip), vehicle: saline with Tween-80 89 % of control

O=C(O)c1cccc(C(=O)c2ccc([N+](=O)[O-])cc2)c1
inactive: [9] 97 % of control | [10] 90 % of control | [11] 99 % of control | [12] 102 % of control | [13] 96 % of control | [14] 90 % of control

O=C(NNc1ccccc1)C1C2CC3OC(=O)C1C3C2 (stereo not given)
inactive: [10] 93 % of control | [12] 98 % of control | [14] 96 % of control

CC1(C)OC2C(C(=O)N(CCO)CCO)OC(n3cnc4c(N)ncnc43)C2O1 (stereo not given)
inactive: [15] 102 % of control | dose: 75.0 mg/kg/injection, schedule: Q04DX003 (ip), vehicle: saline 106 % of control | [16] 104 % of control | dose: 150.0 mg/kg/injection, schedule: Q04DX003 (ip), vehicle: saline 106 % of control | [17] 101 % of control | dose: 300.0 mg/kg/injection, schedule: Q04DX003 (ip), vehicle: saline 107 % of control

O=S(=O)(Cc1nc2ccccc2[nH]1)Cc1nc2ccccc2[nH]1
inactive: dose: 50.0 mg/kg/injection, schedule: Q01DX001 (ip), vehicle: carboxymethylcellulose (CMC) 97 % of control | dose: 100.0 mg/kg/injection, schedule: Q01DX001 (ip), vehicle: carboxymethylcellulose (CMC) 92 % of control | dose: 200.0 mg/kg/injection, schedule: Q01DX001 (ip), vehicle: carboxymethylcellulose (CMC) 100 % of control | dose: 400.0 mg/kg/injection, schedule: Q01DX001 (ip), vehicle: carboxymethylcellulose (CMC) 92 % of control

CC(NC(=O)NCCCl)c1cccc2ccccc12 (stereo not given)
inactive: dose: 100.0 mg/kg/injection, schedule: Q04DX003 (ip), vehicle: Klucel (hydroxypropylcellulose) (HPC) 102 % of control | dose: 200.0 mg/kg/injection, schedule: Q04DX003 (ip), vehicle: Klucel (hydroxypropylcellulose) (HPC) 103 % of control | dose: 400.0 mg/kg/injection, schedule: Q04DX003 (ip), vehicle: Klucel (hydroxypropylcellulose) (HPC) 95 % of control

COC(=O)CS(=O)(=O)C/C(=N\Nc1ccccc1)c1ccccc1
inactive: [15] 104 % of control | [16] 92 % of control | [17] 98 % of control

O=C(C(Sc1ccccc1)=P(c1ccccc1)(c1ccccc1)c1ccccc1)c1ccccc1
inactive: [6] 90 % of control | [7] 90 % of control

CSCc1ccccn1
inactive: [18] 106 % of control | [9] 101 % of control | [11] 93 % of control | [13] 104 % of control

Cc1ccc(N=Nc2ccc(C)cc2NC(=O)Nc2cc(Cl)ccc2C)cc1
inactive: dose: 100.0 mg/kg/injection, schedule: Q01DX009 (ip), vehicle: Klucel (hydroxypropylcellulose) (HPC) 93 % of control | dose: 200.0 mg/kg/injection, schedule: Q01DX009 (ip), vehicle: Klucel (hydroxypropylcellulose) (HPC) 94 % of control

Cc1cc(Oc2ccc(Cl)cc2NC(=O)Nc2cccc(C(F)(F)F)c2)cc(S(=O)(=O)O)c1Cl
inactive: dose: 25.0 mg/kg/injection, schedule: Q01DX009 (ip), vehicle: saline sonified 101 % of control | dose: 50.0 mg/kg/injection, schedule: Q01DX009 (ip), vehicle: saline sonified 98 % of control | dose: 100.0 mg/kg/injection, schedule: Q01DX009 (ip), vehicle: saline sonified 90 % of control

CCC(=O)OC1(c2ccccc2)CCN(C)C1C (stereo not given)
inactive: dose: 6.25 mg/kg/injection, schedule: Q01DX009 (ip), vehicle: saline 101 % of control | dose: 12.5 mg/kg/injection, schedule: Q01DX009 (ip), vehicle: saline 97 % of control | [19] 103 % of control | [4] 103 % of control | [20] 111 % of control | [5] 105 % of control | [21] 103 % of control | [10] 100 % of control

COC(=O)C(Br)CBr (stereo not given)
inactive: [19] 100 % of control | [20] 105 % of control | [21] 98 % of control and 105 % of control | [10] 102 % of control | [12] 116 % of control

CCCC(Br)C(=O)OCC (stereo not given)
inactive: [6] 101 % of control | [7] 96 % of control

CCOC(=O)C(=[N+]=[N-])S(=O)(=O)c1ccccc1
inactive: [6] 97 % of control | [7] 101 % of control | [8] 114 % of control

CCCCCCCCCCCCCCCCCC[As](=O)(O)CCCCCCCCCCCCCCCCCC
inactive: [18] 97 % of control | [9] 101 % of control | [11] 91 % of control | [13] 101 % of control

CCCC/C=C/C#N
inactive: dose: 75.0 mg/kg/injection, schedule: Q01DX009 (ip), vehicle: saline 100 % of control | [9] 106 % of control | [10] 98 % of control | dose: 150.0 mg/kg/injection, schedule: Q01DX009 (ip), vehicle: saline 97 % of control | [11] 96 % of control | [12] 101 % of control | [13] 92 % of control | [14] 94 % of control
